Experiments:
SF-539 = test: Growth inhibition of human SF539 cells incubated for 48 hrs by sulforhodamine B assay; format: functional; settings: SF-539, 48 h
SK-MEL-5 = test: Growth inhibition of human SK-MEL-5 cells incubated for 48 hrs by sulforhodamine B assay; format: functional; settings: SK-MEL-5, 48 h
OVCAR-5 = test: Growth inhibition of human OVCAR5 cells incubated for 48 hrs by sulforhodamine B assay; format: functional; settings: OVCAR-5, 48 h
MDA-MB-231 = test: Growth inhibition of human MDA-MB-231 cells incubated for 48 hrs by sulforhodamine B assay; format: functional; settings: MDA-MB-231, 48 h
UACC-62 = test: Growth inhibition of human UACC62 cells incubated for 48 hrs by sulforhodamine B assay; format: functional; settings: UACC-62, 48 h
SF-295 = test: Growth inhibition of human SF295 cells incubated for 48 hrs by sulforhodamine B assay; format: functional; settings: SF-295, 48 h
TK-10 = test: Growth inhibition of human TK10 cells incubated for 48 hrs by sulforhodamine B assay; format: functional; settings: TK-10, 48 h
HCT-116 = test: cells; settings: Homo sapiens, HCT-116, 72 h
DU-145 = test: Growth inhibition of human DU145 cells incubated for 48 hrs by sulforhodamine B assay; format: functional; settings: DU-145, 48 h
[1] = target: T1, DNA topoisomerase 1 (Homo sapiens) (UniProt P11387); test: Inhibition of recombinant TOP1 (unknown origin) using 3'-[32P]-labeled 117 bp DNA oligonucleotide assessed as TOP1-mediated DNA cleavage by measuring induction and stabilization of cleavage sites 17, 35 and 79 incubated for 20 mins by PAGE analysis
T1 sequence (whole entry): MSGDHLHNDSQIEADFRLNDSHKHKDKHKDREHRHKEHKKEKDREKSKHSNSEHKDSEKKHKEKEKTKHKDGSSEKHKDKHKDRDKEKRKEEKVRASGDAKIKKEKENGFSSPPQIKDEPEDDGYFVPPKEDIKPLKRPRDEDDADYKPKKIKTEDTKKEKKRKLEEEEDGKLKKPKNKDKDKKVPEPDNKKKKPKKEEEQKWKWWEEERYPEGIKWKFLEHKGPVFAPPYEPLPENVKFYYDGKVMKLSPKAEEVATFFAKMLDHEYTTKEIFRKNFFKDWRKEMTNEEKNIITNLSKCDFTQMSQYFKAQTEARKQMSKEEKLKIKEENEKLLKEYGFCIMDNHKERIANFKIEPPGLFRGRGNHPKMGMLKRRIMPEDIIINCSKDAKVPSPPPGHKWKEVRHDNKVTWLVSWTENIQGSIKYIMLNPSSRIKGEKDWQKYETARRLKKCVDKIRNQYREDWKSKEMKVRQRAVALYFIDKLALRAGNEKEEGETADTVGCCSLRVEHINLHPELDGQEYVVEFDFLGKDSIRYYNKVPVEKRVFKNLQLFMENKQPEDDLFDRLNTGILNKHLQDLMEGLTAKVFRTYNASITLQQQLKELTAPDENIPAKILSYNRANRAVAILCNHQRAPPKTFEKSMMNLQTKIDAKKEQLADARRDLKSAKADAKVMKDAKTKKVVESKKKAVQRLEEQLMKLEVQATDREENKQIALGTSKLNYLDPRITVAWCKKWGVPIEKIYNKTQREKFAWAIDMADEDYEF

KM12 = test: Growth inhibition of human KM12 cells incubated for 48 hrs by sulforhodamine B assay; format: functional; settings: KM12, 48 h
NCI-H226 = test: Growth inhibition of human NCI-H226 cells incubated for 48 hrs by sulforhodamine B assay; format: functional; settings: NCI-H226, 48 h
SK-MEL-28 = test: Growth inhibition of human SK-MEL-28 cells incubated for 48 hrs by sulforhodamine B assay; format: functional; settings: SK-MEL-28, 48 h
SNB-75 = test: Growth inhibition of human SNB75 cells incubated for 48 hrs by sulforhodamine B assay; format: functional; settings: SNB-75, 48 h
786-0 = test: Growth inhibition of human 786-0 cells incubated for 48 hrs by sulforhodamine B assay; format: functional; settings: 786-0, 48 h
HOP-92 = test: Growth inhibition of human HOP92 cells incubated for 48 hrs by sulforhodamine B assay; format: functional; settings: HOP-92, 48 h
SR = test: Growth inhibition of human SR cells incubated for 48 hrs by sulforhodamine B assay; format: functional
IGROV-1 = test: Growth inhibition of human IGROV1 cells incubated for 48 hrs by sulforhodamine B assay; format: functional; settings: IGROV-1, 48 h
MCF7 = test: cells; settings: Homo sapiens, MCF7, 72 h
EKVX = test: Growth inhibition of human EKVX cells incubated for 48 hrs by sulforhodamine B assay; format: functional
SK-OV-3 = test: Growth inhibition of human SKOV3 cells incubated for 48 hrs by sulforhodamine B assay; format: functional; settings: SK-OV-3, 48 h
BT-549 = test: Growth inhibition of human BT549 cells incubated for 48 hrs by sulforhodamine B assay; format: functional; settings: BT-549, 48 h
NCI/ADR-RES = test: Growth inhibition of human NCI/ADR-RES cells incubated for 48 hrs by sulforhodamine B assay; format: functional
SF-268 = test: Growth inhibition of human SF268 cells incubated for 48 hrs by sulforhodamine B assay; format: functional; settings: SF-268, 48 h
T47D = test: Growth inhibition of human T47D cells incubated for 48 hrs by sulforhodamine B assay; format: functional
A549 = test: cells; settings: Homo sapiens, A549, 72 h
NCI-H522 = test: Growth inhibition of human NCI-H522 cells incubated for 48 hrs by sulforhodamine B assay; format: functional; settings: NCI-H522, 48 h
[2] = target: T1, DNA topoisomerase 1 (Homo sapiens); test: Inhibition of recombinant TOP1 (unknown origin) using 3'-[32P]-labeled 117 bp DNA oligonucleotide assessed as […] TOP1-mediated DNA cleavage incubated for 20 mins by PAGE analysis relative to 1 uM CPT
UO-31 = test: Growth inhibition of human UO31 cells incubated for 48 hrs by sulforhodamine B assay; format: functional; settings: UO-31, 48 h
K562 = test: Growth inhibition of human K562 cells incubated for 48 hrs by sulforhodamine B assay; format: functional; settings: K562, 48 h
OVCAR-3 = test: Growth inhibition of human OVCAR3 cells incubated for 48 hrs by sulforhodamine B assay; format: functional; settings: OVCAR-3, 48 h
RPMI-8226 = test: Growth inhibition of human RPMI8226 cells incubated for 48 hrs by sulforhodamine B assay; format: functional; settings: RPMI-8226, 48 h
M14 = test: Growth inhibition of human M14 cells incubated for 48 hrs by sulforhodamine B assay; format: functional; settings: M14, 48 h
SK-MEL-2 = test: Growth inhibition of human SK-MEL-2 cells incubated for 48 hrs by sulforhodamine B assay; format: functional; settings: SK-MEL-2, 48 h
CAKI-1 = test: Growth inhibition of human Caki1 cells incubated for 48 hrs by sulforhodamine B assay; format: functional; settings: CAKI-1, 48 h
[3] = test system: Panel NCI-60 (60 carcinoma cell lines); test: Growth inhibition of human NCI60 incubated for 48 hrs by sulforhodamine B assay; format: functional

| SMILES | GI50 (SF-539) [nM] | GI50 (SK-MEL-5) [nM] | GI50 (OVCAR-5) [nM] | GI50 (MDA-MB-231) [nM] | GI50 (UACC-62) [nM] | GI50 (SF-295) [nM] | GI50 (TK-10) [nM] | GI50 (HCT-116) [nM] | GI50 (DU-145) [nM] | Activity [1] | GI50 (KM12) [nM] | GI50 (NCI-H226) [nM] | GI50 (SK-MEL-28) [nM] | GI50 (SNB-75) [nM] | GI50 (786-0) [nM] | GI50 (HOP-92) [nM] | GI50 (SR) [nM] | GI50 (IGROV-1) [nM] | GI50 (MCF7) [nM] | GI50 (EKVX) [nM] | other results |
| --- | --- | --- | --- | --- | --- | --- | --- | --- | --- | --- | --- | --- | --- | --- | --- | --- | --- | --- | --- | --- | --- |
| CNCCn1c(=O)c2cc(OC)c(OC)cc2c2ccc3cc4c(cc3c21)OCO4 | 124 | 90.9 | 183 | 362 | 45.1 | 34.6 | 316 | 36 | 130 | Dose-dependent effect | 238 | 172 | 573 | 88.5 | 70.3 | 184 | 17.3 | 145 | 90 | 202 | GI50 (SK-OV-3): 157 nM; GI50 (BT-549): 202 nM; GI50 (NCI/ADR-RES): 165 nM; GI50 (SF-268): 90.3 nM; GI50 (T47D): 75.7 nM; GI50 (A549): 970 nM; GI50 (NCI-H522): 27.4 nM; inhibition [2]: 75 to 95%; GI50 (UO-31): 104 nM; GI50 (K562): 39.4 nM; GI50 (OVCAR-3): 166 nM; GI50 (RPMI-8226): 76.3 nM; GI50 (M14): 58.1 nM; GI50 (SK-MEL-2): 393 nM; GI50 (CAKI-1): 64.4 nM; GI50 [3]: 97.7 nM |
| COc1cc2c(=O)n(CCN)c3c4cc5c(cc4ccc3c2cc1OC)OCO5 | 1060 | 614 | 1200 | 1280 | 278 | 279 | 1350 | 290 | 527 | Dose-dependent effect | 1100 | 1340 | 3050 | 596 | 464 | 3560 | 90.7 | 500 | 100 | 1360 | GI50 (SK-OV-3): 1240 nM; GI50 (BT-549): 918 nM; GI50 (NCI/ADR-RES): 1010 nM; GI50 (SF-268): 442 nM; GI50 (T47D): 368 nM; GI50 (A549): 980 nM; GI50 (NCI-H522): 87.5 nM; inhibition [2]: 50 to 75%; GI50 (UO-31): 350 nM; GI50 (K562): 161 nM; GI50 (OVCAR-3): 826 nM; GI50 (RPMI-8226): 257 nM; GI50 (M14): 324 nM; GI50 (SK-MEL-2): 3010 nM; GI50 (CAKI-1): 295 nM; GI50 [3]: 525 nM |
